According to ChEMBL document CHEMBL4350971, “Discovery of tropinone-thiazole derivatives as potent caspase 3/7 activators, and noncompetitive tyrosinase inhibitors with high antiproliferative activity: Rational design, one-pot tricomponent synthesis, and lipophilicity determination” (Eur J Med Chem, 2019):
pIC50: −log10 of the molar value. The source made the active and inactive calls. The calls are words filed in the database; no cut-off is given here.

Assays:
[1] = system: HCT-116; test: Antiproliferative activity against human HCT116 cells by MTT assay; format: functional, cell-based
[2] = system: BALB/3T3; test: Antiproliferative activity against mouse BALB/3T3 cells incubated for 72 hrs by SRB assay; format: cell-based; conditions: BALB/3T3, 72 h
[3] = system: B16-F10; test: Antiproliferative activity against mouse B16F10 cells incubated for 72 hrs by MTT assay; format: functional, cell-based; conditions: B16-F10, 72 h
[4] = system: MCF7; test: Antiproliferative activity against human MCF7 cells incubated for 72 hrs by SRB assay; format: functional, cell-based; conditions: MCF7, 72 h
[5] = system: MV4-11; test: Antiproliferative activity against human MV4-11 cells incubated for 72 hrs by MTT assay; format: functional, cell-based; conditions: MV4-11, 72 h
[6] = system: A549; test: Antiproliferative activity against human A549 cells incubated for 72 hrs by SRB assay; format: functional, cell-based; conditions: A549, 72 h
[7] = target: T1, Tyrosinase (Agaricus bisporus) (UniProt O42713); test: Inhibition of mushroom tyrosinase assessed as reduction in peak intensity at 15 mM using L-dopa as substrate incubated for 30 mins by UV-vis spectra analysis
T1 sequence (whole entry): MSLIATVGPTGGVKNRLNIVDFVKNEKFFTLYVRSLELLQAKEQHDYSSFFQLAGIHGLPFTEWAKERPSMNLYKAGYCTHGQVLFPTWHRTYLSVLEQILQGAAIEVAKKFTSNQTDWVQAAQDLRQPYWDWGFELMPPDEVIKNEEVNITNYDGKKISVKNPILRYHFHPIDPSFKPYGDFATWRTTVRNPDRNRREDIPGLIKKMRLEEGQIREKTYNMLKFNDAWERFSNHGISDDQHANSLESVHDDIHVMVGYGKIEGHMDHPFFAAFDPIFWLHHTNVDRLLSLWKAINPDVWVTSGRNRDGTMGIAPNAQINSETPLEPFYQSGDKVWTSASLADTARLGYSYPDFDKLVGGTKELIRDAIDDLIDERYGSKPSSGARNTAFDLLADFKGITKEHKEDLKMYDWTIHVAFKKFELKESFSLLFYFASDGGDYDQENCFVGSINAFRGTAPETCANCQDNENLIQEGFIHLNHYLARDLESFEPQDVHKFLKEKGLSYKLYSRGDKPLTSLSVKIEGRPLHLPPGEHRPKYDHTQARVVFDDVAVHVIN

[8] = target: T1, Tyrosinase (Agaricus bisporus); test: Ratio of IC50 for ascorbic acid to IC50 for test compound for inhibition of mushroom tyrosinase using L-dopa as substrate incubated for 30 mins by spectrophotometric method
[9] = system: A549; test: Induction of apoptosis in human A549 cells assessed as fold increase in caspase 3/7 activation using Ac-DEVD-ACC as fluorogenic substrate at 5 ug/ml incubated for 72 hrs by fluorescence assay relative to control; format: functional
[10] = system: A549; test: Potency index, ratio of chlorambucil to ratio of test compound for induction of apoptosis in human A549 cells; format: functional
[11] = target: T1, Tyrosinase (Agaricus bisporus); test: Ratio of IC50 for kojic acid to IC50 for test compound for inhibition of mushroom tyrosinase using L-dopa as substrate incubated for 30 mins by spectrophotometric method
[12] = system: A549; test: Potency index, ratio of camptothecin to ratio of test compound for induction of apoptosis in human A549 cells; format: functional
[13] = target: T2, Tyrosinase (Agaricus bisporus, UniProt O42713); test: Inhibition of mushroom tyrosinase using L-dopa as substrate incubated for 30 mins by spectrophotometric method
T2 sequence (O42713 whole entry): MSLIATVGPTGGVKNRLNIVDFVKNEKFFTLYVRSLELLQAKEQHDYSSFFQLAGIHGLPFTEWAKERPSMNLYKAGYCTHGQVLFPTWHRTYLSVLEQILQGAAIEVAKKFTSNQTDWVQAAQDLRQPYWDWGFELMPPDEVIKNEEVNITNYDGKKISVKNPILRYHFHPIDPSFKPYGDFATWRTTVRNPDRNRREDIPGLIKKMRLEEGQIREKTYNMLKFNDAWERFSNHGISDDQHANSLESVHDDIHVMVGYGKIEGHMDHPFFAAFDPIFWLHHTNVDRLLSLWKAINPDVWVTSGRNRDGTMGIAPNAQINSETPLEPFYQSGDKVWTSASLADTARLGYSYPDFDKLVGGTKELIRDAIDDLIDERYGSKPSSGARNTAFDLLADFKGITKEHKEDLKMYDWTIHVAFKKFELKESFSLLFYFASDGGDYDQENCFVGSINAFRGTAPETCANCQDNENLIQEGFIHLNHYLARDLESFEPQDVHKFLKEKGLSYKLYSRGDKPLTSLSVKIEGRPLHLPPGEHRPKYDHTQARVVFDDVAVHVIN

[14] = Lipophilicity, chromatographic lipophilicity index of the compound in methanol by UPLC-MS/MS; format: physicochemical
[15] = system: MCF7; test: Antiproliferative activity against human MCF7 cells reduction in cell viability relative to control; format: functional
[16] = system: HL-60; test: Antiproliferative activity against human HL60 cells incubated for 48 hrs by MTS assay; format: functional, cell-based; conditions: HL-60, 48 h
[17] = system: MCF7; test: Antiproliferative activity against human MCF7 cells reduction in cell viability; format: functional, cell-based

SMILES | pIC50 [2] | pIC50 [3] | pIC50 [4] | pIC50 [5] | pIC50 [6] | further results
CCN1[C@@H]2CC[C@H]1/C(=C\c1ccc(OC)c(OC)c1)C(=O)/C2=C/c1ccc(OC)c(OC)c1 |  |  |  |  |  | pIC50 [1]: 8.00
O=C(O)CCCc1ccc(N(CCCl)CCCl)cc1 [CHLORAMBUCIL] | 4.16 | 4.90 | 4.16 | 5.07 | 4.14 | 
CN1[C@@H]2CC[C@H]1C/C(=N/Nc1nc(-c3ccc(Cl)c(Cl)c3)cs1)C2 | 5.07 | 5.27 | 5.14 | 5.08 | 5.10 | inhibition [7]: Active; Ratio IC50 [8]: 120; fold change (FC) [9]: 25; Ratio [10]: 18; Ratio IC50 [11]: 22; Ratio [12]: 2; pIC50 [13]: 5.49; logKw [14]: -4.024
ClCCN(CCCl)c1ccc(/C=N/Nc2nc(-c3ccc(Br)cc3)cs2)cc1 |  |  |  | 5.90 |  | 
CN1[C@@H]2CC[C@H]1CC(=O)C2 |  |  |  |  |  | inhibition (INH) [15]: 26.98%
CN1[C@@H]2CC[C@H]1C/C(=N/Nc1nc(-c3ccc(Cl)cc3)cs1)C2 | 5.04 | < 4.84 | 5.04 | 5.03 | 5.02 | Activity [9]: inactive; pIC50 [13]: 3.88; logKw [14]: -2.844
CN1[C@@H]2CC[C@H]1/C(=C\c1cccc(Br)c1)C(=O)/C2=C/c1cccc(Br)c1 |  |  |  |  |  | pIC50 [16]: 5.47; pIC50 [17]: 4.88
